The numbers were not newly measured in patent US20140275235A1, “Treatment of Proliferative Disorders” (priority 2013, published 2014), which cites them from elsewhere.

Bounds are passed on as bounds.

The conditions of the data set: literature refs 11, 12.

`C[S+]([O-])CCCCN=C=S` (centres unmarked) [SFN, sulforaphane]: the Bioavailability is reported as 80% and the “Time to peak plasma levels” value is not above 2 h.
